Data reported in ChEMBL document CHEMBL1201862, “PubChem BioAssay data set” (2004).
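96-well plates; 48 h exposure; 5 concentrations. Endpoints by linear interpolation between flanking doses. Not reached: highest tested concentration assigned. Here, GI50 denotes the concentration required for 50% inhibition of growth.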 Calls of active or inactive are those of the source. No stated cut-off is given here; in the data, active = GI50 up to about 1.1 µM and inactive = higher.

What was measured:
Test in all cases: NCI anticancer screen, dose series, 48 h
[1] = test system: EKVX
[2] = test system: OVCAR-8
[3] = test system: OVCAR-3
[4] = test system: K562
[5] = test system: KM12
[6] = test system: M14
[7] = test system: PC-3
[8] = test system: SNB-19
[9] = test system: SF-295
[10] = test system: OVCAR-4
[11] = test system: ACHN
[12] = test system: SK-MEL-5
[13] = test system: MOLT-4
[14] = test system: SK-OV-3
[15] = test system: IGROV-1
[16] = test system: SK-MEL-28
[17] = test system: SF-539
[18] = test system: HOP-62
[19] = test system: UACC-62
[20] = test system: SR

Measured: GI50

COc1ccc(/C=C2\CC3C4CC=C5C[C@@H](N6CCCC6)CC[C@]5(C)C4CC[C@]3(C)[C@H]2O)cc1OC (stereo partly specified)
inactive: [1] 8.79 µM | [2] 10.6 µM | [3] 8.32 µM | [4] 8.09 µM | [5] 6.56 µM | [6] 9.44 µM | [7] 6.3 µM | [8] 10.4 µM | [9] 3.13 µM | [10] 7.67 µM | [11] 8.85 µM | [12] 7.26 µM | [13] 8.39 µM | [14] 8.81 µM | [15] 10.7 µM | [16] 8.51 µM | [17] 7.06 µM | [18] 5.48 µM | [19] 8.97 µM

COc1ccc(NC(=S)c2ccoc2C)cc1CC(=O)OC(C)C
inactive: [1] 25.1 µM | [2] 29 µM | [3] 26.5 µM | [4] 34.8 µM | [5] 29.7 µM | [6] 24.9 µM | [7] 21.9 µM | [8] 61.5 µM | [9] 38.1 µM | [10] 30.1 µM | [11] 30.8 µM | [12] 34.1 µM | [13] 18.8 µM | [14] 54 µM | [15] 36 µM | [16] 34.4 µM | [17] 37.3 µM | [19] 26 µM

N#Cc1c(N)nc2c(/N=N\c3ccccc3)c(N)nn2c1Nc1ccccc1
inactive: [1] 5.37 µM | [2] 3.72 µM | [3] 13.9 µM | [4] 3.4 µM | [5] 4.75 µM | [6] 12.1 µM | [7] 5.69 µM | [8] 18.5 µM | [9] 16.8 µM | [10] 14.9 µM | [11] 20.4 µM | [12] 14.9 µM | [13] 3.24 µM | [15] 10.9 µM | [16] 5.51 µM | [17] 21.6 µM | [20] 2.39 µM | [18] 20.3 µM

CC(C)(C)C(=O)Nc1c(C=O)ccc2[nH]cnc12
inactive: [1] > 100 µM | [2] > 100 µM | [3] 80.9 µM | [4] 42.8 µM | [5] 80.4 µM | [6] > 100 µM | [7] 74.3 µM | [8] > 100 µM | [9] > 100 µM | [10] > 100 µM | [11] > 100 µM | [12] 78.7 µM | [13] 30.5 µM | [14] > 100 µM | [15] > 100 µM | [16] > 100 µM | [17] > 100 µM | [18] 61.8 µM

O=C(O)CSc1cc(-c2ccccc2)nc2ccccc12
inactive: [1] > 100 µM | [2] 63.2 µM | [3] 21.7 µM | [4] 33.3 µM | [5] 30.5 µM | [6] 50.2 µM | [7] 35.2 µM | [8] > 100 µM | [9] 45.5 µM | [10] 64 µM | [11] 71.1 µM | [12] 30.4 µM | [13] 46.3 µM | [15] 57.7 µM | [16] 85.1 µM | [20] 27.9 µM | [18] 48.2 µM | [19] 48.3 µM

c1ccc(-c2cc(-c3ccccc3)nc(-c3ccncc3)c2)cc1
inactive: [1] > 100 µM | [2] > 100 µM | [3] > 100 µM | [4] > 100 µM | [5] 96.4 µM | [6] 42.4 µM | [7] > 100 µM | [8] 53.8 µM | [9] 57.1 µM | [10] 16.4 µM | [11] 70.8 µM | [12] 57.1 µM | [13] > 100 µM | [14] > 100 µM | [15] 25.9 µM | [16] > 100 µM | [20] > 100 µM | [18] 16.1 µM | [19] > 100 µM

Cc1ccccc1-n1c(=O)nc2n(-c3ccc(C(C)(C)C)cc3)c3ccccc3cc-2c1=O
inactive: [1] 22.4 µM | [2] 17.1 µM | [3] 18.4 µM | [4] 37.8 µM | [5] 15.3 µM | [6] 17.7 µM | [7] 19.8 µM | [8] 21.5 µM | [9] 20.4 µM | [10] 26.5 µM | [11] 32.5 µM | [12] 15.1 µM | [13] 23.8 µM | [15] 24.3 µM | [16] 15.3 µM | [17] 17.8 µM | [20] 30.1 µM | [18] 20.2 µM | [19] 19.2 µM

COc1cc(C(c2c(O)c3ccccc3oc2=O)c2c(O)c3ccccc3oc2=O)ccc1O
inactive: [1] 27.9 µM | [2] 27.7 µM | [3] 19.5 µM | [4] 39.4 µM | [5] 32.7 µM | [6] 18.1 µM | [7] 33.7 µM | [8] 26.8 µM | [9] 35.1 µM | [10] 49.1 µM | [11] 22.6 µM | [12] 15.7 µM | [13] 21.1 µM | [14] > 100 µM | [15] 11.3 µM | [16] 16.7 µM | [17] 23.3 µM | [18] 44.4 µM | [19] 18.5 µM

Cc1c2c(OCC3CCCCO3)nn(C)c(=O)c2c(C)n1-c1ccccc1 (stereo unspecified)
inactive: [1] 17.1 µM | [2] 19.9 µM | [3] 16.7 µM | [4] 38.8 µM | [5] 18.6 µM | [6] 19.1 µM | [7] 19.7 µM | [8] 21.7 µM | [9] 16.5 µM | [10] 15.8 µM | [11] 16.5 µM | [12] 15.1 µM | [13] 29 µM | [14] 18.3 µM | [15] 18.4 µM | [17] 20 µM | [18] 19.2 µM | [19] 16.4 µM

CCOC(=O)C(NC(=O)c1cccc(Cl)c1)(Nc1cccc(C)c1)C(F)(F)F (stereo unspecified)
inactive: [1] 18.7 µM | [2] 21.2 µM | [4] 23.6 µM | [5] 13.6 µM | [7] 16.5 µM | [8] 35.9 µM | [10] 21.8 µM | [11] 15.9 µM | [12] 16.1 µM | [13] 20.4 µM | [15] 12.8 µM | [16] 17.4 µM | [17] 17.9 µM | [20] 28.7 µM | [18] 17.7 µM | [19] 14.5 µM

N#Cc1nnn(C2CCCCC2)c1O
inactive: [1] > 100 µM | [2] > 100 µM | [3] > 100 µM | [5] > 100 µM | [6] > 100 µM | [7] > 100 µM | [8] > 100 µM | [9] > 100 µM | [10] > 100 µM | [11] > 100 µM | [12] > 100 µM | [13] > 100 µM | [14] > 100 µM | [15] > 100 µM | [16] > 100 µM | [17] > 100 µM | [18] > 100 µM | [19] > 100 µM

CS(=O)(=O)c1nc(-c2cc3c(c(S(C)(=O)=O)n2)CCC3)cc2c1CCCC2
inactive: [1] > 100 µM | [2] 19.1 µM | [3] > 100 µM | [4] > 100 µM | [5] > 100 µM | [6] > 100 µM | [7] > 100 µM | [8] 32.4 µM | [9] 29.7 µM | [10] > 100 µM | [11] 37 µM | [12] > 100 µM | [13] > 100 µM | [14] 24.4 µM | [15] 18.3 µM | [16] > 100 µM | [17] 49.3 µM | [18] 24.1 µM | [19] 14.4 µM

CCc1ccc2oc(-c3cc(O)c(-c4nc5cc(CC)ccc5o4)cc3O)nc2c1
inactive: [1] > 100 µM | [2] > 100 µM | [4] > 100 µM | [6] > 100 µM | [7] > 100 µM | [8] > 100 µM | [11] > 100 µM | [12] > 100 µM | [13] > 100 µM | [14] > 100 µM | [15] > 100 µM | [16] > 100 µM | [17] > 100 µM | [20] > 100 µM | [18] > 100 µM | [19] > 100 µM

O=c1c2sc(=S)n(-c3ccc(F)cc3)c2ncn1/N=C/c1ccc(F)cc1F
inactive: [1] 16.6 µM | [2] 20.1 µM | [3] 30.1 µM | [4] > 100 µM | [5] 79.8 µM | [6] 23.2 µM | [7] 31.6 µM | [8] 26.6 µM | [9] 21.1 µM | [10] 18.9 µM | [11] 27.5 µM | [12] 58.1 µM | [14] 25.4 µM | [15] 24.6 µM | [16] 29.8 µM | [20] 40.1 µM | [18] 16.6 µM | [19] 27.7 µM

CN1C(=O)c2ccccc2NC(=O)C12O[C@@H]2c1cccc(O)c1 (stereo partly specified)
inactive: [1] > 100 µM | [2] > 100 µM | [3] > 100 µM | [5] > 100 µM | [6] > 100 µM | [7] > 100 µM | [8] > 100 µM | [9] > 100 µM | [10] > 100 µM | [11] > 100 µM | [12] > 100 µM | [13] > 100 µM | [15] > 100 µM | [16] > 100 µM | [17] > 100 µM | [20] > 100 µM | [18] > 100 µM | [19] > 100 µM
